Data set [1] is described as follows: in vitro. As to conditions: human.
The target of data set [2] is CXCR4 (Homo sapiens, UniProt P61073). Kind of data set: Ca2+-assay method 2 (Flexstation, SDF-1 induced calcium mobilization). The data set is classed as cell-based. Also on record: expressed in transfected cells; host or cells: mouse pre-B cell line 300-19. The settings on record: method 2 (Ex. 54-160), mouse pre-B cell line 300-19 with human CXCR4, 10 nM SDF-1.
The subject of data set [3] is human red blood cells (hRBC). Kind of data set: Hemolysis. The data set is classed as cell-based. In outline: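 Percent lysis taken as OD540 of peptide-treated sample over OD540 of the water/0.1% Triton X-100 full-lysis control, with PBS giving 0%. Peptides at 100 μM exposed to PBS-washed human RBCs (20% v/v) for 1 hour at 37° C. before centrifugation and 20-fold dilution of supernatant.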

Setting [4] is: read-out: IC50 (nM) Ca^2+ assay.

SMILES strings stand for the structures. Like-named read-outs stand apart in the source and are kept apart here. Bridge positions count the residues as written; N and C are the ends. Square brackets hold non-standard residues; d marks the D form. Peptide text beside a SMILES is read from it. Phe(4-F) = N[C@@H](Cc1ccc(F)cc1)C(=O)O; 2Nal = N[C@@H](Cc1ccc2ccccc2c1)C(=O)O; Cit = NC(=O)NCCC[C@H](N)C(=O)O
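Throughout, for GI50: MTT reduction read as absorbance at 595 nm, blank-corrected and expressed as percent growth relative to the time-zero cell reading, triplicate wells per concentration.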

Chain of CXCR4 (P61073 whole entry): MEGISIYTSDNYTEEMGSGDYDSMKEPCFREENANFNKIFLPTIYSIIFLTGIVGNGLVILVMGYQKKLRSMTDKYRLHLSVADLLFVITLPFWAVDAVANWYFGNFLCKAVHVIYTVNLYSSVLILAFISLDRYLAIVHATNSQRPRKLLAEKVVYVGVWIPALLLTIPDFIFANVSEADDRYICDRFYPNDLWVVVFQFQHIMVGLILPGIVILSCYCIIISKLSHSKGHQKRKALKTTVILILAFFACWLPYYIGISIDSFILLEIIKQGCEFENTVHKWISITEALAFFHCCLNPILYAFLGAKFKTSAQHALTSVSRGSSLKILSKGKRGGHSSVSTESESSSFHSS

Compound `N=C(N)NCCC[C@@H]1NC(=O)[C@@H]2CSSC[C@H](NC(=O)[C@H](Cc3ccc4ccccc4c3)NC(=O)[C@H](CCCNC(=N)N)NC(=O)[C@H](CCCNC(=N)N)NC(=O)[C@H]3CCCN3C(=O)CNC1=O)C(=O)N[C@@H](Cc1ccc(O)cc1)C(=O)N[C@@H](CCCNC(=N)N)C(=O)N[C@@H](CCCCN)C(=O)N1CCC[C@@H]1C(=O)N1CCC[C@H]1C(=O)N[C@@H](Cc1ccc(O)cc1)C(=O)N[C@@H](CCCNC(=N)N)C(=O)N[C@@H](CCCNC(N)=O)C(=O)N2` [compound 57] (cyclo(YR[Cit]CRG[dP]RR[2Nal]CYRK[dP]P); disulfide 4-11) showed a concentration for 50% growth inhibition (GI50) at 48 h in data set [1] of 33000 nM. Moreover, the IC50 in data set [2] (setting [4]) was found to be 4.2 nM. For the same compound, the Hemolysis at 100 μM in data set [3] worked out at 0.1%.
Compound `N=C(N)NCCC[C@@H]1NC(=O)[C@@H]2CSSC[C@H](NC(=O)[C@H](Cc3ccc(O)cc3)NC(=O)[C@H](CCCNC(=N)N)NC(=O)[C@H](CCCNC(=N)N)NC(=O)[C@H]3CCCN3C(=O)CNC1=O)C(=O)N[C@@H](Cc1ccc(O)cc1)C(=O)N[C@@H](CCC(N)=O)C(=O)N[C@@H](CCCCN)C(=O)N[C@H](CCC(N)=O)C(=O)N1CCC[C@H]1C(=O)N[C@@H](Cc1ccc(O)cc1)C(=O)N[C@@H](CCCNC(=N)N)C(=O)N[C@@H](CCCNC(N)=O)C(=O)N2` [Ex. 149] (cyclo(YR[Cit]CRG[dP]RRYCYQK[dQ]P); disulfide 4-11) gave a 50% growth inhibitory concentration (GI50) at 48 h in data set [1] greater than 100000 nM. The IC50 in data set [2] (IC50 (nM) Ca^2+ assay) amounted to 1 nM. The compound further had a Hemolysis at 100 μM in data set [3] (percent hemolysis, 100 μM peptide, 20% v/v hRBC, 1 hour at 37° C.) of 0%.
With `C[C@@H]1NC(=O)[C@H](CCC(N)=O)NC(=O)[C@H](Cc2ccc(O)cc2)NC(=O)[C@@H]2CSSC[C@H](NC(=O)[C@H](CCCNC(N)=O)NC(=O)[C@H](CCCNC(=N)N)NC(=O)[C@H](Cc3ccc(O)cc3)NC(=O)[C@@H]3CCCN3C(=O)[C@H]3CCCN3C1=O)C(=O)N[C@@H](CCCNC(=N)N)C(=O)NCC(=O)N1CCC[C@@H]1C(=O)N[C@@H](CCCNC(=N)N)C(=O)N[C@@H](CCCNC(=N)N)C(=O)N[C@@H](Cc1ccc3ccccc3c1)C(=O)N2` [Ex. 86] (cyclo(YR[Cit]CRG[dP]RR[2Nal]CYQA[dP]P); disulfide 4-11), it took 62000 nM to inhibit growth in data set [1] by half (GI50 at 48 h). For the same compound, in data set [2] (setting [4]), the half-inhibitory concentration (IC50) is 0.69 nM. Moreover, the Hemolysis at 100 μM in data set [3] came to 0%.
The corresponding values for `N=C(N)NCCC[C@@H]1NC(=O)[C@@H]2CSSC[C@H](NC(=O)[C@H](Cc3c[nH]c4ccccc34)NC(=O)[C@H](CCCNC(=N)N)NC(=O)[C@H](CCCNC(=N)N)NC(=O)[C@H]3CCCN3C(=O)CNC1=O)C(=O)N[C@@H](Cc1ccc(O)cc1)C(=O)N[C@@H](CCCNC(N)=O)C(=O)N[C@@H](CCC(N)=O)C(=O)N1CCC[C@@H]1C(=O)N1CCC[C@H]1C(=O)N[C@@H](Cc1ccc(O)cc1)C(=O)N[C@@H](CCCNC(=N)N)C(=O)N[C@@H](CCCNC(N)=O)C(=O)N2` [Ex. 121] (cyclo(YR[Cit]CRG[dP]RRWCY[Cit]Q[dP]P); disulfide 4-11) are 79000 nM, 6.5 nM and 0%.
Compound `N=C(N)NCCC[C@@H]1NC(=O)[C@@H]2CSSC[C@H](NC(=O)[C@H](Cc3ccc4ccccc4c3)NC(=O)[C@H](CCCNC(=N)N)NC(=O)[C@H](Cc3c[nH]c4ccccc34)NC(=O)[C@H]3CCCN3C(=O)CNC1=O)C(=O)N[C@@H](Cc1ccc(O)cc1)C(=O)N[C@@H](CCC(N)=O)C(=O)N[C@@H](CCCCN)C(=O)N1CCC[C@@H]1C(=O)N1CCC[C@H]1C(=O)N[C@@H](Cc1ccc(O)cc1)C(=O)N[C@@H](CCCNC(=N)N)C(=O)N[C@@H](CCCNC(N)=O)C(=O)N2` [Ex. 55] (cyclo(YR[Cit]CRG[dP]WR[2Nal]CYQK[dP]P); disulfide 4-11) showed a concentration for 50% growth inhibition (GI50) at 48 h in data set [1] of 43000 nM. In addition, the IC50 in data set [2] (setting [4]) came out at 6.3 nM. The compound further registered a Hemolysis at 100 μM in data set [3] of 0.1%.
`N=C(N)NCCC[C@@H]1NC(=O)[C@@H]2CSSC[C@H](NC(=O)[C@H](Cc3ccc4ccccc4c3)NC(=O)[C@H](CCCNC(=N)N)NC(=O)[C@H](CCCNC(=N)N)NC(=O)[C@H]3CCCN3C(=O)CNC1=O)C(=O)N[C@@H](Cc1ccc(O)cc1)C(=O)N[C@@H](CCC(N)=O)C(=O)N[C@@H](CCCCN)C(=O)N1CCC[C@@H]1C(=O)N1CCC[C@H]1C(=O)N[C@@H](CC(=O)O)C(=O)N[C@@H](CCCNC(=N)N)C(=O)N[C@@H](CCCNC(N)=O)C(=O)N2` [Ex. 88] (cyclo(DR[Cit]CRG[dP]RR[2Nal]CYQK[dP]P); disulfide 4-11) registered a concentration for 50% growth inhibition (GI50) at 48 h in data set [1] of 44000 nM. For the same compound, the 50% inhibitory concentration (IC50) in data set [2] (setting [4]) came to 2.5 nM. In data set [3], this compound displayed a Hemolysis at 100 μM of 0%.
As to `N=C(N)NCCC[C@@H]1NC(=O)[C@@H]2CSSC[C@H](NC(=O)[C@H](Cc3ccc4ccccc4c3)NC(=O)[C@H](CCCNC(=N)N)NC(=O)[C@H](CCCNC(=N)N)NC(=O)[C@H]3CCCN3C(=O)CNC1=O)C(=O)N[C@@H](Cc1ccc(O)cc1)C(=O)N[C@@H](CCCNC(N)=O)C(=O)N[C@@H](CCC(=O)O)C(=O)N1CCC[C@@H]1C(=O)N1CCC[C@H]1C(=O)N[C@@H](Cc1ccc(O)cc1)C(=O)N[C@@H](CCCNC(=N)N)C(=O)N[C@@H](CCCNC(N)=O)C(=O)N2` [Ex. 103] (cyclo(YR[Cit]CRG[dP]RR[2Nal]CY[Cit]E[dP]P); disulfide 4-11), in data set [1], the concentration for 50% growth inhibition (GI50) at 48 h turned out to be 42000 nM. In addition, the IC50 in data set [2] (setting [4]) was 18.3 nM. Further, the Hemolysis at 100 μM in data set [3] is 0.2%.
The corresponding values for `N=C(N)NCCC[C@@H]1NC(=O)[C@@H]2CSSC[C@H](NC(=O)[C@H](Cc3ccc4ccccc4c3)NC(=O)[C@H](CCCNC(=N)N)NC(=O)[C@H](CCCNC(=N)N)NC(=O)[C@H]3CCCN3C(=O)CNC1=O)C(=O)N[C@@H](Cc1ccc(O)cc1)C(=O)N[C@@H](CCC(N)=O)C(=O)N[C@@H](CCCCN)C(=O)N1CCC[C@@H]1C(=O)N1CCC[C@H]1C(=O)N[C@@H](Cc1ccc(O)cc1)C(=O)N[C@@H](CCCNC(=N)N)C(=O)N[C@@H](CC(=O)O)C(=O)N2` [Ex. 93] (cyclo(YRDCRG[dP]RR[2Nal]CYQK[dP]P); disulfide 4-11) are greater than 100000 nM, 4.3 nM and 0.2%.
The corresponding values for `N=C(N)NCCC[C@@H]1NC(=O)[C@@H]2CSSC[C@H](NC(=O)[C@H](Cc3c[nH]c4ccccc34)NC(=O)[C@H](CCCNC(=N)N)NC(=O)[C@H](Cc3c[nH]cn3)NC(=O)[C@H]3CCCN3C(=O)CNC1=O)C(=O)N[C@@H](Cc1ccc(O)cc1)C(=O)N[C@@H](CCCNC(N)=O)C(=O)N[C@@H](CCCCN)C(=O)N1CCC[C@@H]1C(=O)N1CCC[C@H]1C(=O)N[C@@H](Cc1ccc(O)cc1)C(=O)N[C@@H](CCCNC(=N)N)C(=O)N[C@@H](CCCNC(N)=O)C(=O)N2` [Ex. 137] (cyclo(YR[Cit]CRG[dP]HRWCY[Cit]K[dP]P); disulfide 4-11) are 79000 nM, 1.28 nM and 0.5%.
The corresponding values for `CSCC[C@@H]1NC(=O)[C@@H]2CCCN2C(=O)[C@H]2CCCN2C(=O)[C@H](CCCCN)NC(=O)[C@H](CCC(N)=O)NC(=O)[C@H](Cc2ccc(O)cc2)NC(=O)[C@@H]2CSSC[C@H](NC(=O)[C@H](CCCNC(N)=O)NC(=O)[C@H](CCCNC(=N)N)NC1=O)C(=O)N[C@@H](CCCNC(=N)N)C(=O)NCC(=O)N1CCC[C@@H]1C(=O)N[C@@H](CCCNC(=N)N)C(=O)N[C@@H](CCCNC(=N)N)C(=O)N[C@@H](Cc1ccc3ccccc3c1)C(=O)N2` [Ex. 91] (cyclo(MR[Cit]CRG[dP]RR[2Nal]CYQK[dP]P); disulfide 4-11) are 48000 nM, 2.1 nM and 0.2%.
Take `N=C(N)NCCC[C@@H]1NC(=O)[C@@H]2CSSC[C@H](NC(=O)[C@H](Cc3ccc4ccccc4c3)NC(=O)[C@H](CCCNC(=N)N)NC(=O)[C@H](CCCNC(=N)N)NC(=O)[C@H]3CCCN3C(=O)CNC1=O)C(=O)N[C@@H](Cc1ccc(O)cc1)C(=O)N[C@@H](Cc1c[nH]cn1)C(=O)N[C@@H](CCCCN)C(=O)N1CCC[C@@H]1C(=O)N1CCC[C@H]1C(=O)N[C@@H](Cc1ccc(O)cc1)C(=O)N[C@@H](CCCNC(=N)N)C(=O)N[C@@H](CCCNC(N)=O)C(=O)N2` [Ex. 58] (cyclo(YR[Cit]CRG[dP]RR[2Nal]CYHK[dP]P); disulfide 4-11): the 50% growth inhibitory concentration (GI50) at 48 h in data set [1] came to 18000 nM. In data set [2] (setting [4]), the IC50 was 10.5 nM. In data set [3], this compound yielded a Hemolysis at 100 μM of 0%.
For `N=C(N)NCCC[C@@H]1NC(=O)[C@@H]2CSSC[C@H](NC(=O)[C@H](Cc3c[nH]c4ccccc34)NC(=O)[C@H](CCCNC(=N)N)NC(=O)[C@H](Cc3ccc(F)cc3)NC(=O)[C@H]3CCCN3C(=O)CNC1=O)C(=O)N[C@@H](Cc1ccc(O)cc1)C(=O)N[C@@H](CCCNC(N)=O)C(=O)N[C@@H](CCCCN)C(=O)N1CCC[C@@H]1C(=O)N1CCC[C@H]1C(=O)N[C@@H](Cc1ccc(O)cc1)C(=O)N[C@@H](CCCNC(=N)N)C(=O)N[C@@H](CCCNC(N)=O)C(=O)N2` [Ex. 122] (cyclo(YR[Cit]CRG[dP][Phe(4-F)]RWCY[Cit]K[dP]P); disulfide 4-11) the same measures were 60000 nM, 8.8 nM and 0%.
Consider `N=C(N)NCCC[C@@H]1NC(=O)[C@@H]2CSSC[C@H](NC(=O)[C@H](Cc3ccc4ccccc4c3)NC(=O)[C@H](CCCNC(=N)N)NC(=O)[C@H](CCCNC(=N)N)NC(=O)[C@H]3CCCN3C(=O)CNC1=O)C(=O)N[C@@H](Cc1ccc(O)cc1)C(=O)N[C@@H](CCC(N)=O)C(=O)N[C@@H](CCCCN)C(=O)N1CCC[C@@H]1C(=O)N1CCC[C@H]1C(=O)N[C@@H](Cc1ccc(O)cc1)C(=O)N[C@@H](CCCNC(=N)N)C(=O)N[C@@H](CCCNC(=N)N)C(=O)N2` [Ex. 69] (cyclo(YRRCRG[dP]RR[2Nal]CYQK[dP]P); disulfide 4-11), for which, in data set [1], the concentration for 50% growth inhibition (GI50) at 48 h was found to be 49000 nM. The IC50 in data set [2] (setting [4]) worked out at 1.8 nM. Moreover, the Hemolysis at 100 μM in data set [3] worked out at 0.1%.

Values taken from US8895695B2, “Template-fixed beta-hairpin peptidomimetics with CXCR4 antagonizing activity” (priority 2003, dated 2014).
